The text below walks through data of US20230391748A1, “BICYCLIC INHIBITORS OF IRAK” (priority 2022, published 2023).

pIC50: −log10 of the molar value.

Assay [1] concerns TNF-α in Human Primary Monocyte-Derived Dendritic Cells. Nature of the assay: Gardiquimod-Induced TNF-α in Human Primary Monocyte-Derived Dendritic Cells. The format is cell-based. As to conditions: Dendritic cell, IFNγ-primed monocyte-derived dendritic cells, 4 μg/ml Gardiquimod, 6 hours, TNF-α ELISA, read-out: TNFα (DC, GARD) (IC50). How it is done: Gardiquimod-Induced TNF-α in Human Primary Monocyte-Derived Dendritic Cells
After 2 hours, the media including floating cells was carefully removed and 12 ml of fresh RPMI media (10% FBS) containing GM-CSF (100 ng/ml) and IL-4 (20 ng/ml) were added to the adherent monocytes. The monocytes were allowed to differentiate for 7 days at 37° C., 5% CO2 for 7 days, supplementing with fresh GM-CSF and IL-4 after 3 days. The differentiated dendritic cells (DC) were harvested by centrifugation (1200 rpm/5 min). The DCs were primed at 37° C., 5% CO2 for 24 hours with 50 ng/ml IFN-γ (1000 U/ml) at 50K/well in 100 μl/well of fresh RPMI media (10% FBS) in a white clear bottom 96 well plate.
The primed DCs were pre-incubated with test compound for 1 hour at 37° C., 5% CO2 by adding 100 μl of RPMI media containing 2× concentrated test compound per well (0.5% final DMSO concentration).
DCs were stimulated with Gardiquimod (10 μl per well of 20× concentrated Gardiquimod solution in RPMI media to give a final concentration of 4 μg/ml) at 37° C., 5% CO2 for an additional 6 hours. The supernatant (100 μl/well) was harvested to measure TNF-α by ELISA. […] The chemiluminescence values were entered into Athena (Rigel) for curve fitting, EC50 calculation, and database storage.
(§1) TNF-α ELISA was performed according to the vendor protocol, using 96 Well Flat-Bottom, MaxiSorp Black Immuno plates and 100 μL/well of supernatant. The plates were developed using 100 μL/well of Super Signal ELISA Pico Chemiluminescent Substrate. The plates were read with a luminometer, and the chemiluminescence values were entered into Athena (Rigel) for curve fitting, EC50 calculation, and database storage.
A general note: An ELISA detects its analyte on a solid surface through an enzyme-linked reagent.

Another assay relates to IL23p19 in THP-1 Cells. Nature of the assay: LPS Induced IL23p19 in THP-1 Cells (with IFNγ Primed) Assay. The format is cell-based. As to conditions: Homo sapiens, THP-1, 18 h, read-out: IL23 (THP, LPS) (IC50, μM). How it is done: LPS Induced IL23p19 in THP-1 Cells (with IFNγ Primed) Assay
On day 1, 50K/well THP-1 cells were seeded and primed with IFNγ (50 ng/mL) in 384-well plates for about 18 hours in RPMI media with 10% FBS. […] 50 μL/well 2× compound was added to 50 μL/well THP-1 cells (with IFNγ primed) in duplicate in 384 well tissue culture plates. […] Day 3, after stimulation for 18 hours at 37° C., 5% CO2, the assay plate was centrifuged and 70 μL/well supernatant was harvested. IL-23p19 protein in 70 µL/well of supernatant was measured by sandwich ELISA, and 25 μl/well Cell Titer Glo reagent was added to the remaining cells to measure compound toxicity.
Maxisorp immuno ELISA plates were pre-coated with 25 μL/well of anti-IL-23p19 capture antibody (2.5 ug/mL) in PBS overnight at room temperature. […] 25 μL/well of biotin labeled anti-IL-12(p40/p70) detection antibody (100 ng/mL) in PBS with 1% BSA was added and the plates were incubated at room temperature for 2 hours with shaking. […] The plates were read with a luminometer, and the chemiluminescence values were entered into Athena (Rigel) for curve fitting, EC50 calculation, and database storage.

A further assay relates to TNF-α in human PBMCs. Nature of the assay: R848-induced TNF-α in human PBMCs Assay. The class given is cell-based. Particulars: Homo sapiens, PBMC, 4 h, read-out: TNFα (PBMC, R848) (IC50, μM). The method, then: R848-induced TNF-α in human PBMCs Assay
100 μL/well PBMCs (200K/well) were seeded in 96-well flat-bottom tissue culture plates. […] 100 μL/well 2× compound was added to the PBMC in the tissue culture plates. […] The cells were stimulated with R848 for an additional 4 hours at 37° C., 5% CO2. The supernatant (100 μl/well) was harvested to measure TNF-α by ELISA. […] The chemiluminescence values were entered into Athena (Rigel) for curve fitting, EC50 calculation, and database storage.
as §1

A further assay deals with IRAK4 (Homo sapiens (Human), UniProt Q9NWZ3). Put plainly: IRAK4 ADP-Glo Assay. The class given is biochemical. As to conditions: MBP substrate. How it is done:
The ADP-Glo™ reagents were thawed at ambient temperature. The Kinase Detection Reagent was prepared by mixing kinase detection buffer with the lyophilized kinase detection substrate, and set aside.
A stock volume of 5× Reaction Kinase Buffer was made with a final concentration of 100 mM MgCl2, 200 mM Tris-HCl, and 0.5 mg/ml of BSA, in distilled H2O with a final pH7.4. A 2× working stock volume of Reaction Kinase Buffer was made containing a final concentration of 100 μM DTT.
The components of IRAK4 Enzyme were thawed on ice. Diluted IRAK4 in 1× Kinase Reaction Buffer (diluted from 2× buffer) was prepared at 5.0 ng/μl.
Then diluted 1:5 in 2× Reaction Buffer in a 96 well plate. 1.0 μl was transferred to a 384 well plate in duplicate. […] 1 μl of 1 mg/ml stock solution of MBP substrate was added NOTE: MBP can be combined with ATP mix with equal volume and then added at 2 μl/well. Final reaction volume was 5 μl.
The plate was centrifuged and the reaction mixture was incubated at room temperature for 60 minutes or at 30° C. for 30 minutes.
The reaction was terminated and the remaining ATP was depleted by adding 5 μl of ADP-Glo™ Reagent. The 384-well plate was centrifuged and then the reaction mixture was incubated for another 40 minutes at ambient temperature.
10 μl of the Kinase Detection Reagent was added. The plate was centrifuged and then the reaction mixture was incubated for another 30 minutes at ambient temperature.
The 384-well reaction plate was read using the WALLAC plate reader (Luminescence 0.1s).
On the technique in general: ADP-Glo turns the ADP formed in a reaction into a luminescent signal.

Sequence of IRAK4 (Q9NWZ3 whole entry): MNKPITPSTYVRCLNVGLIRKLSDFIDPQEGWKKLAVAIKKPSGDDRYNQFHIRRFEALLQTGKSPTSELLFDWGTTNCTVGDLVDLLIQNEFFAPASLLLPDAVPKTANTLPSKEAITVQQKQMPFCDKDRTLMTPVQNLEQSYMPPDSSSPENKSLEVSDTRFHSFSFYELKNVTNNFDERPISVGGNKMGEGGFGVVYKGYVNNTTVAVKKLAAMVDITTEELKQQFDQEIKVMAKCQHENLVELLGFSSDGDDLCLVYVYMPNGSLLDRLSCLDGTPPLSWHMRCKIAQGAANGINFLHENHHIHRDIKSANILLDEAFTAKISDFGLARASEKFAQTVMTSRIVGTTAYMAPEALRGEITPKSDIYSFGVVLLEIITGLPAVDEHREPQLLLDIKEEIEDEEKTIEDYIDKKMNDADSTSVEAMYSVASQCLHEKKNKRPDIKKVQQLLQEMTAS

With `CC(C)Oc1cc2c(OC[C@@H]3CCC(=O)N3)ncc(C#CC(C)(C)O)c2cc1C(N)=O` [Compound I-3, (S)-4-(3-hydroxy-3-methylbut-1-yn-1-yl)-7-isopropoxy-1-((5-oxopyrrolidin-2-yl)methoxy)isoquinoline-6-carboxamide], the pIC50 – broadly, the IC50 on a negative log10 scale, so that one unit is a factor of ten – was 6.39 in assay [1] and 7.90 at IRAK4. The 50% inhibitory concentration (IC50) – broadly, the concentration that gives 50% inhibition – with IL23p19 in THP-1 Cells was determined as 0.879 µM; in the assay on TNF-α in human PBMCs, 0.36 µM.

For the compound `CC(C)Oc1cc2c(OC[C@@H]3CCC(=O)N3)ncc(C#CC(C)(C)CO)c2cc1C(N)=O` [Compound I-5, (S)-4-(4-hydroxy-3,3-dimethylbut-1-yn-1-yl)-7-isopropoxy-1-((5-oxopyrrolidin-2-yl)methoxy)isoquinoline-6-carboxamide], the negative-log IC50 (pIC50) in assay [1] was 6.31; against IRAK4, 6.92. Moreover, the figures for the IC50 in the assay on IL23p19 in THP-1 Cells and in the assay on TNF-α in human PBMCs were 6.51 µM and 0.433 µM, respectively.

Regarding `CC(C)Oc1cc2c(OC[C@@H]3CCC(=O)N3)ncc(C#CC3CCOCC3)c2cc1C(N)=O` [Compound I-6, (S)-7-isopropoxy-1-((5-oxopyrrolidin-2-yl)methoxy)-4-((tetrahydro-2H-pyran-4-yl)ethynyl)isoquinoline-6-carboxamide], the pIC50 in assay [1] is 6.48; on IRAK4 it was 8.29. The half-inhibitory concentration (IC50) in the assay on IL23p19 in THP-1 Cells turned out to be 0.195 µM; with TNF-α in human PBMCs it was 0.199 µM.

Consider `CC(C)Oc1cc2c(OC[C@@H]3CCC(=O)N3)ncc(C#CCN3CCOCC3)c2cc1C(N)=O` [Compound I-7, (S)-7-isopropoxy-4-(3-morpholinoprop-1-yn-1-yl)-1-((5-oxopyrrolidin-2-yl)methoxy)isoquinoline-6-carboxamide], for which the pIC50 in assay [1] was 6.42; on IRAK4, 8.09. Moreover, the IC50 amounted to 0.527 µM in the assay with IL23p19 in THP-1 Cells and 0.402 µM in the assay with TNF-α in human PBMCs.

For the compound `CC(C)Oc1cc2c(OC[C@@H]3CCC(=O)N3)ncc(C#CCCN3CCOCC3)c2cc1C(N)=O` [Compound I-8, (S)-7-isopropoxy-4-(4-morpholinobut-1-yn-1-yl)-1-((5-oxopyrrolidin-2-yl)methoxy)isoquinoline-6-carboxamide], the figures for the pIC50 (in assay [1]; at IRAK4) were 6.50 and 7.91, respectively. Besides, the IC50 in the assay with IL23p19 in THP-1 Cells was 0.332 µM; with TNF-α in human PBMCs, 0.411 µM.

Turning to `CC(C)Oc1cc2c(OC[C@@H]3CCC(=O)N3)ncc(C#CC3(O)CCCC3)c2cc1C(N)=O` [Compound I-9, (S)-4-((1-hydroxycyclopentyl)ethynyl)-7-isopropoxy-1-((5-oxopyrrolidin-2-yl)methoxy)isoquinoline-6-carboxamide], the pIC50 was 6.68 in assay [1] and 8.00 against IRAK4. Moreover, the 50% inhibitory concentration (IC50) with IL23p19 in THP-1 Cells stood at 0.394 µM; with TNF-α in human PBMCs, 0.319 µM.

In the case of `CC(C)Oc1cc2c(OC[C@@H]3CCC(=O)N3)ncc(C#CC3(O)CCOCC3)c2cc1C(N)=O` [Compound I-10, (S)-4-((4-hydroxytetrahydro-2H-pyran-4-yl)ethynyl)-7-isopropoxy-1-((5-oxopyrrolidin-2-yl)methoxy)isoquinoline-6-carboxamide], the pIC50 in assay [1] was 5.53; on IRAK4, 7.94. Further, the values for the IC50 in the assay with IL23p19 in THP-1 Cells and in the assay on TNF-α in human PBMCs were 3.28 µM and 0.873 µM, respectively.

For `CC(C)Oc1cc2c(OC[C@@H]3CCC(=O)N3)ncc(C#CCC3CCOCC3)c2cc1C(N)=O` [Compound I-11, (S)-7-isopropoxy-1-((5-oxopyrrolidin-2-yl)methoxy)-4-(3-(tetrahydro-2H-pyran-4-yl)prop-1-yn-1-yl)isoquinoline-6-carboxamide], the negative-log IC50 (pIC50) was 6.70 in assay [1] and 7.98 against IRAK4. For the same compound, the IC50 came out at 0.474 µM in the assay with IL23p19 in THP-1 Cells and 0.32 µM in the assay on TNF-α in human PBMCs.

As to `CC(C)Oc1cc2c(OC[C@@H]3CCC(=O)N3)ncc(C#CC3(O)CCN(C(=O)OC(C)(C)C)CC3)c2cc1C(N)=O` [Compound I-12, tert-butyl (S)-4-((6-carbamoyl-7-isopropoxy-1-((5-oxopyrrolidin-2-yl)methoxy)isoquinolin-4-yl)ethynyl)-4-hydroxypiperidine-1-carboxylate], the pIC50 was 5.22 in assay [1] and 7.39 on IRAK4. Also, the 50% inhibitory concentration (IC50) with IL23p19 in THP-1 Cells was 1.25 µM; with TNF-α in human PBMCs, 0.448 µM.

Regarding `CC(C)Oc1cc2c(OC[C@@H]3CCC(=O)N3)ncc(C#CC3(O)CCNCC3)c2cc1C(N)=O` [Compound I-13, (S)-4-((4-hydroxypiperidin-4-yl)ethynyl)-7-isopropoxy-1-((5-oxopyrrolidin-2-yl)methoxy)isoquinoline-6-carboxamide], the pIC50 in assay [1] was 5.46; at IRAK4 it was 7.83. The IC50 in the assay on IL23p19 in THP-1 Cells was 4.64 µM; in the assay with TNF-α in human PBMCs, 4.67 µM.

For `CC(C)Oc1cc2c(OC[C@@H]3CCC(=O)N3)ncc(C#CC3CCN(C(=O)OC(C)(C)C)CC3)c2cc1C(N)=O` [Compound I-15, tert-butyl (S)-4-((6-carbamoyl-7-isopropoxy-1-((5-oxopyrrolidin-2-yl)methoxy)isoquinolin-4-yl)ethynyl)piperidine-1-carboxylate], the results for the negative-log IC50 (pIC50) (in assay [1]; against IRAK4) were 7.14 and 7.80, respectively. In addition, the IC50 was 0.525 µM in the assay with IL23p19 in THP-1 Cells and 0.0874 µM in the assay on TNF-α in human PBMCs.

As to `COC(=O)N1CCC(C#Cc2cnc(OC[C@@H]3CCC(=O)N3)c3cc(OC(C)C)c(C(N)=O)cc23)CC1` [Compound I-16, methyl (S)-4-((6-carbamoyl-7-isopropoxy-1-((5-oxopyrrolidin-2-yl)methoxy)isoquinolin-4-yl)ethynyl)piperidine-1-carboxylate], the pIC50 in assay [1] is 6.61; at IRAK4, 7.92. In addition, the IC50 in the assay with IL23p19 in THP-1 Cells was found to be 0.0886 µM; in the assay on TNF-α in human PBMCs it was 0.0474 µM.

As to `CC(C)Oc1cc2c(OC[C@@H]3CCC(=O)N3)ncc(C#CC3CCNCC3)c2cc1C(N)=O` [Compound I-17, (S)-7-isopropoxy-1-((5-oxopyrrolidin-2-yl)methoxy)-4-(piperidin-4-ylethynyl)isoquinoline-6-carboxamide], the pIC50 is 4.77 in assay [1] and 8.77 on IRAK4. For the same compound, the figures for the IC50 in the assay on IL23p19 in THP-1 Cells and in the assay with TNF-α in human PBMCs were 11.2 µM and 1.33 µM, respectively.

Take `CC(C)Oc1cc2c(OC[C@@H]3CCC(=O)N3)ncc(C#CC3CCN(C)CC3)c2cc1C(N)=O` [Compound I-18, (S)-7-isopropoxy-4-((1-methylpiperidin-4-yl)ethynyl)-1-((5-oxopyrrolidin-2-yl)methoxy)isoquinoline-6-carboxamide]: the pIC50 in assay [1] is 6.69; on IRAK4, 8.64. Further, the figures for the IC50 with IL23p19 in THP-1 Cells and in the assay with TNF-α in human PBMCs were 0.606 µM and 0.306 µM, respectively.
